# Experimental data reported in patent US20260216247A1, “Composition For Treatment Or Prevention Of Hair Loss Comprising Stem Cell-Derived Exosomes And Preparation Method Therefor” (BREXOGEN INC., priority 2023, published 2026).
# How the values were obtained:
# [1] = tested on: testosterone-treated C57BL/6 mice; test: Hair regrowth in testosterone-treated animal model; assay type: in vivo; conditions: Day 27; topical testosterone daily; 1 mg/kg Finasteride subcutaneous every other day; testosterone-untreated = 100
# Method: To evaluate whether the composition of the present disclosure promotes hair regrowth, BxC-HAe isolated in Example 2 was administered to a testosterone-treated animal model, and changes in body weight and photographic observations were compared.
# Specifically, six-week-old C57BL/6 mice were acclimated for two weeks under conditions of 25° C. and 50% humidity with ad libitum access to food and tap water. Eight-week-old mice were then used for the experiment.
# On Day 0, initial depilation was performed using a hair clipper, followed by the application of Niklin (II-dong Pharmaceutical) for 90 seconds for secondary depilation. The area was then rinsed three times with lukewarm water.
# In the testosterone-treated group, starting on Day 1, 100 μL of 0.5% (w/w) testosterone dissolved in 50% ethanol was topically applied daily to the depilated dorsal region of each mouse.
# Starting from the point when hair regrowth began in the testosterone-untreated group, body weight was measured twice weekly, and photographs were taken once weekly.
# Specifically, hair regrowth area and depilated area were measured using ImageJ software, and the ratio of hair regrowth area to depilated area was calculated and analyzed statistically.
# The experiment was conducted until Day 27, the point at which hair regrowth was completed in the testosterone-untreated group. […]
# [2] = tested on: testosterone-treated C57BL/6 mice; test: Ratio of anagen-phase hair follicles in skin tissue (H&E), testosterone-treated animal model; assay type: in vivo; conditions: Anagen/(Catagen+Telogen); dorsal skin after 27-day experiment; 1 mg/kg Finasteride subcutaneous
# Method: To determine whether the composition of the present disclosure inhibits the reduction of hair follicles, the ratio of anagen-phase hair follicles was measured in a testosterone-treated animal model following administration of BxC-HAe isolated in Example 2. Specifically, dorsal skin tissues from each mouse subjected to the 27-day experiment described in Example 8 were collected, embedded in paraffin blocks, and sectioned at a thickness of 5 μm. The tissue sections were then stained using H&E. Subsequently, for each group, randomly selected hair follicles from the dorsal skin of five mice were classified by morphology into anagen (growth phase), catagen (regression phase), and telogen (resting phase). The ratio of anagen hair follicles was calculated using the formula: Anagen/(Catagen+Telogen). The results were presented in FIGS. 20 and 21, and Table 18.
# β-catenin = β-catenin immunofluorescence in skin tissue, testosterone-treated animal model; assay type: in vivo, C57BL/6 mice; conditions: dorsal skin after 27-day experiment; 1 mg/kg Finasteride; testosterone-untreated = 1
# Method: To determine whether the composition of the present disclosure modulates the expression of hair loss and regrowth-related factors, a testosterone-treated animal model was administered BxC-HAe isolated in Example 2, and the fluorescence intensity of cells stained with antibodies against androgen receptor (AR) and β-catenin was measured and compared.
# Specifically, dorsal skin tissues from each mouse subjected to the 27-day experiment (described in Example 8) were harvested, embedded in paraffin blocks, and sectioned at a thickness of 5 μm, followed by immunofluorescent staining.
# The primary antibodies used were rabbit anti-β-catenin (Cell Signaling #9562) and mouse anti-AR (Santa Cruz, sc-7305). The fluorophore-conjugated secondary antibodies were goat anti-rabbit IgG conjugated with Alexa Fluor 488 (Abcam, ab150077) and goat anti-mouse IgG conjugated with Cyanine5 (Invitrogen, a10524).
# After completion of the antibody reactions, DAPI staining was performed, and fluorescence patterns were analyzed using a Nikon ECLIPSE Ti2 fluorescence microscope and NIS-Elements software. The results are shown in FIGS. 22-24, and in Tables 19 and 20.
smiles,measurement,setting,value
CC(C)(C)NC(=O)[C@H]1CC[C@H]2[C@@H]3CC[C@H]4NC(=O)C=C[C@]4(C)[C@H]3CC[C@]12C [Finasteride],Hair growth area (%),[1],68.1%
same,Percentage of hair follicles in growth phase (%),[2],1.29%
same,Fluorescence intensity (β-catenin),β-catenin,1.05
